Experimental data reported in patent publication US5075311A, “HMG-CoA reductase inhibiting substituted pryido (2,3-d) pyrimidines” (Bayer Aktiengesellschaft, priority 1989, dated 1991).

Tested on: HMG-CoA reductase (3-hydroxy-3-methyl-glutaryl-coenzyme A reductase)
Assay: HMG-CoA reductase enzyme activity determination (modified from G. C. Ness et al.), relative in vitro activity versus mevinolin
Type: biochemical, rat (male Rico rats, liver)
Conditions: from IC50 values, IC50 of reference mevinolin set at 1; 20 min preincubation at 37° C., 60 min incubation
Experimental: The enzyme activity determination was carried out as modified by G. C. Ness et al., Archives of Biochemistry and Biphysics 197, 493-499 [1979]. Male Rico rats (body weight 300-400 g) were treated for 11 days with altromin powdered feed to which 40 g of cholestyramine/kg of feed had been added. After description, the livers were removed from the animals and placed on ice. The livers were comminuted and homogenized 3 times in 3 volumes of 0.1 m sucrose, 0.05 m KCl, 0.04 m Kx Hy phosphate, 0.03 m ethylenediaminetetraacetic acid, 0.002 m dithiothreitol [SPE] buffer pH 7.2 in a Potter-Elvejem homogenizer. The mixture was then centrifuged at 15,000 g for 15 minutes and the sediment was discarded. […]
After incubating for 60 minutes at 37° C., the batch was centrifuged and 600 μl of the supernatant was applied to a 0.7×4 cm column packed with a 5-chloride 100-200 mesh (anion exchanger). The column was subsequently washed with 2 ml of distilled water and 3 ml of Aquasol were added to runnings plus washing water and counted in an LKB scintillation counter. IC50 values were determined by intrapolation by plotting the percentage inhibition against the concentration of the compound in the test. In order to determine the relative inhibitory potency, the IC50 value of the reference substance mevinolin was set at 1 and compared with the simultaneously determined IC50 value of the test compound.

Row | SMILES | relative activity (mevinolin = 1)
1 | COC(=O)C[C@H](O)C[C@H](O)/C=C/c1c(C(C)C)nc2c(c1-c1ccc(F)cc1)c(=O)[nH]c(=O)n2C (relative stereo) [Example 16, Methyl erythro-(E)-7-[5-(4-fluorophenyl)-7-isopropyl-1-methyl-2,4-dioxo-1,2,3,4-tetrahydro-pyrido(2,3-d)pyrimidin-6-yl]-3,5-dihydroxy-hept-6-enoate] | 6
2 | CCCCn1c(=O)[nH]c(=O)c2c(-c3ccc(F)cc3)c(/C=C/[C@@H](O)C[C@@H](O)CC(=O)OC)c(C(C)C)nc21 (relative stereo) [Example 8, Methyl erythro-(E)-7-[1-butyl-5-(4-fluorophenyl)-7-isopropyl-2,4-dioxo-1,2,3,4-terahydro-pyrido(2,3-d)pyrimidin-6-yl]-3,5-dihydroxy-hept-6-enoate] | 2
